Key:
[1] = system: MDA tumor xenografts; assay: Human tumor xenografts in athymic nude mice, tumor weight; assay type: in vivo; conditions: doxorubicin 4 mg/kg every four weeks, intraperitoneal; day 37; mean±SD; untreated control 0.81±0.12 g
Description: Human tumor xenografts in athymic nude mice. […] The animal protocol was approved by the Howard University Animal Care and Use Committee. Four-week-old female athymic nude mice (Nu/Nu) were obtained from Harlan Sprague Dawley (Indianapolis, IN). All mice were provided the Harlan Teklad #2018 Global 18% protein rodent diet and water ad libitum. Mice were housed in temperature-controlled rooms (74±2° F.) with a 12-hour alternating light-dark cycle. MDA cells (3×10^6/50 μL/spot) were subcutaneously injected into the both sides of lower back of mice using a 27-gauge needle. On day 10 after cell implantation, the mice with tumors (˜5 mm in diameter) were randomly divided into Sal-B treated, doxorubicin treated, and untreated groups (five mice per group), and were administrated Sal-B (80 mg/kg, three times per week), doxorubicin (4 mg/kg, every four weeks) and 0.9% saline (50 μl, three times per week), respectively, by intraperitoneal injection for a total of 37 days. […] All mice were sacrificed on day 37.

[2] = system: cyclin B1; assay: Western blot of cyclin B1 expression in MDA and MCF-7 cells; assay type: cell-based, human; conditions: doxorubicin 1 μM, 24 hours
Description: (§1) The expression of two cell cycle-related proteins—cyclin A and cyclin B1—was checked by Western blot. The expression of cyclin A and cyclin B1 was normalized by the expression of the internal control β-actin (lower panel). The cells were treated with 50 μM and 100 μM Sal-B, respectively, for 24 hours. Doxorubicin (0.1 μM and 1 μM) was used as a control. […] The results may be explained by that the cell cycle progression is controlled by a large set of molecules, although cyclin B1 is a key component in the control of cell cycle progression from G2 to M phase.
(§2) The immunohistochemical results were consistent with those from Western blotting (FIG. 7, panel A). Western blot analysis was used to determine the expression of apoptosis-related proteins Bcl-XL, survivin, caspase-3 and caspase-8 (FIG. 7, panel A). β-actin was used as an internal control for Western blotting. The MCD-7 and MDA cells were treated with Sal-B (50 μM and 100 μM) and doxorubicin (0.1 μM and 1 μM), respectively, for 24 hours. Proteins were extracted from the cells with RIPA lysis buffer (Santa Cruz Biotechnology, Santa Cruz, CA) and the protein concentrations were quantified with Bio-Rad protein quantification kit. Whole-cell proteins were separated on 8% SDS-polyacrylamide gel, transferred to the polyvinylidene difluoride membrane (Bio-Rad), and then probed with the indicated primary antibodies overnight at 4° C. Washed blots were then incubated with horseradish peroxidase-conjugated anti-rabbit, anti-mouse, or anti-goat antibody (Santa Cruz Biotechnology), respectively, for one hour at room temperature. Blots were developed and visualized with ECL detection system (Bio-Rad).

[3] = system: cyclin A; assay: Western blot of cyclin A expression in MDA and MCF-7 cells; assay type: cell-based, human; conditions: doxorubicin 1 μM, 24 hours
Description: as §1
as §2, with “Washed blots were then incubated with horseradish peroxidase-conjugated anti-rabbit, anti-mouse, or anti-goat antibody (Santa Cruz Biotechnology), respectively, for one hour at room temperature. Blots were developed and visualized with ECL detection system (Bio-Rad).” left out

[4] = system: proliferating cell nuclear antigen (PCNA); assay: Immunohistochemical staining of PCNA in MDA tumor xenografts; assay type: in vivo, athymic nude mice; conditions: doxorubicin 4 mg/kg every four weeks; versus untreated; P<0.05
Description: (§3) Human tumor xenografts in athymic nude mice. […] The animal protocol was approved by the Howard University Animal Care and Use Committee. Four-week-old female athymic nude mice (Nu/Nu) were obtained from Harlan Sprague Dawley (Indianapolis, IN). All mice were provided the Harlan Teklad #2018 Global 18% protein rodent diet and water ad libitum. Mice were housed in temperature-controlled rooms (74±2° F.) with a 12-hour alternating light-dark cycle. MDA cells (3×10^6/50 μL/spot) were subcutaneously injected into the both sides of lower back of mice using a 27-gauge needle. […]
(§4) Immunohistochemical staining was performed as described previously (Hao Y, et al., “Enforced expression of miR-101 inhibits prostate cancer cell growth by modulating the COX-2 pathway in vivo,” Cancer Prev Res (Phila), 2011; 4: 1073-1083). […] For the quantification, ten high-magnification (40×) fields were randomly selected from each slide of tumors and the positive cells were counted. The protein expression was expressed as the average number of positive cells per high magnification field.

[5] = system: survivin; assay: Immunohistochemical staining of survivin in MDA tumor xenografts; assay type: in vivo, athymic nude mice; conditions: doxorubicin 4 mg/kg every four weeks; versus untreated group
Description: as §3, §4

[6] = system: survivin; assay: Western blot of survivin expression in MDA and MCF-7 cells; assay type: cell-based, human; conditions: doxorubicin 0.1 μM and 1 μM, 24 hours
Description: as §2

[7] = system: Bcl-xL; assay: Western blot of Bcl-xL expression in MDA and MCF-7 cells; assay type: cell-based, human; conditions: doxorubicin 0.1 μM and 1 μM, 24 hours
Description: as §2

[8] = system: Bcl-xL; assay: Immunohistochemical staining of Bcl-xL in MDA tumor xenografts; assay type: in vivo, athymic nude mice; conditions: doxorubicin 4 mg/kg every four weeks; versus untreated tumors; P<0.05
Description: as §3, §4

[9] = system: ceramides; assay: Immunohistochemistry of ceramides in MDA tumor xenografts; assay type: in vivo, athymic nude mice; conditions: doxorubicin 4 mg/kg every four weeks; untreated control 2.3±0.7; P<0.05
Description: as §3
Immunohistochemical staining was performed as described previously (Hao Y, et al., “Enforced expression of miR-101 inhibits prostate cancer cell growth by modulating the COX-2 pathway in vivo,” Cancer Prev Res (Phila), 2011; 4: 1073-1083). […] For the quantification, ten high-magnification (40×) fields were randomly selected from each slide of tumors and the positive cells were counted. The protein expression was expressed as the average number of positive cells per high magnification field. […]

[10] = system: MCF-7 cells; assay: Luciferase assay (bioluminescent cell viability); assay type: cell-based, human; conditions: 24 hours
Description: (§5) Cell lines and culture. MCF-7 and MDA human breast cancer cell lines stably transfected with firefly luciferase gene were purchased from Caliper Life Sciences (Hanover, MD). MCF-7 cells were cultured in DMEM medium (Invitrogen, Carlsbad, CA) and MDA cells were grown in DMEM/F-12 (1:1) medium (Invitrogen). Both media were supplemented with 10% fetal bovine serum (Invitrogen) and antibiotic-antimycotic mixture (100 IU/ml penicillin and 100 μg/ml streptomycin; Cellgro). The cells were maintained at 37° C. in 5% CO2. All experiments were performed when the cells were in the logarithmic phase of growth. Luciferase assay. The MDA cell line and the hormone receptor-positive MCF-7 cell line were utilized to test the effectiveness of Sal-B and doxorubicin on cancer cell viability. Both cell lines had been stably transfected and expressed the firefly luciferase gene. The bioluminescent signal intensity reflects the cell metabolic activity, being highly correlated with the cell viability. Cell viability was evaluated using the sensitive bioluminescent optical imaging. The cells (10,000 per well) were seeded in flat-bottomed 96-well plates in the above-identified medium with 10% fetal bovine serum and allowed to grow overnight. The old medium was then replaced with fresh medium containing different concentrations of Sal-B (50, 100, 150, and 200 μM) or doxorubicin (0.1, 0.2, 0.5, and 1 μM). The cells were further cultured for 24 hours and D-luciferin was added to each well and mixed gently (final concentration of 150 μ/ml). The signal was measured with the Xenogen IVIS 200 imaging system (Caliper Life Sciences, Hopkinton, MA, USA). The system was equipped with a highly sensitive, cooled charge-coupled device (CCD) camera and a light-tight specimen box. Imaging and quantification of signals was controlled by the acquisition and analysis software Living Image 3.0. The bioluminescent signal from the cells in each well was expressed as total flux (photons per second (p/s)). At least five replicates were performed in each experiment, and each experiment was repeated at least three times. The representative data are presented.

[11] = system: MDA-MB-231 cells; assay: Luciferase assay (bioluminescent cell viability); assay type: cell-based, human; conditions: MDA cells, 24 hours
Description: as §5

[12] = system: ER-α; assay: Western blot of ER-α expression in MCF-7 cells; assay type: cell-based, human; conditions: doxorubicin at the high dose (1 μM)
[13] = system: MDA tumor xenografts; assay: TUNEL assay of apoptotic cells in MDA tumor xenografts; assay type: in vivo, athymic nude mice; conditions: doxorubicin 4 mg/kg every four weeks; untreated tumors 3.1±1.8; P<0.05
Description: as §3
Apoptotic cells in MDA tumor xenografts were also analyzed by a terminal deoxynucleotidyl transferase-mediated dUTP nick end labeling (TUNEL) assay using the TdT-FragEL DNA Fragmentation Detection Kit (EMD Millipore, Burlington, MA) as previously described (Li H, et al., “Cellular uptake and anticancer activity of salvianolic acid B phospholipid complex loaded nanoparticles in head and neck cancer and precancer cells,” Colloids Surf B Biointerfaces. 2016; 147: 65-72). […]

COc1cccc2c1C(=O)c1c(O)c3c(c(O)c1C2=O)C[C@@](O)(C(=O)CO)C[C@@H]3O[C@H]1C[C@H](N)[C@H](O)[C@H](C)O1 [doxorubicin, reference compound]
average tumor weight [1]: 0.34 ± 0.09 g
cyclin B1 expression (normalized to β-actin) ([2]; MCF-7 cells): reduction
cyclin B1 expression (normalized to β-actin) ([2]; MDA cells): reduction
cyclin A expression (normalized to β-actin) ([3]; MCF-7 cells): reduction
cyclin A expression (normalized to β-actin) ([3]; MDA cells): reduction
PCNA levels in tumor xenografts [4]: higher in untreated MDA tumor xenografts
survivin level in tumors [5]: decreasing
survivin protein expression ([6]; MCF-7 cells): downregulated
survivin protein expression ([6]; MDA cells): downregulated
Bcl-xL protein expression ([7]; MCF-7 cells): downregulated
Bcl-xL protein expression ([7]; MDA cells): downregulated
expression of Bcl-xL in tumors [8]: decreased expression
ceramide levels in tumor xenografts (ceramide positive cells counted) [9]: 6.2±1.3
cytotoxicity at 0.5 µM ([10]; Homo sapiens, MCF7, MCF-7 cells, doxorubicin 0.5 μM, read-out: reduction of cell viability): ~67%
further reduction of cell viability versus 0.5 μM ([10]; MCF-7 cells, doxorubicin 1 μM): No further reduction
effect on cell viability, MCF-7 cells relative to MDA cells ([10]; doxorubicin 1 μM): approximately two-fold
cytotoxicity at 0.5 µM ([11]; Homo sapiens, MDA-MB-231, doxorubicin 0.5 μM, read-out: reduction of cell viability): 25%
further reduction of cell viability versus 0.5 μM ([11]; doxorubicin 1 μM): No further reduction
ER-α protein level (normalized to β-actin) [12]: decreased
number of apoptotic cells (TUNEL) [13]: 9.0±2.1
